Patent US20240148707A1, “MODULATION OF DRUG-DRUG INTERACTIONS OF VADADUSTAT” (Akebia Therapeutics, Inc., priority 2021, published 2024)
Like-named read-outs stand apart in the source and are kept apart here.

How the values were obtained:
CYP2B6 = target: T1, CYP2B6 (Homo sapiens, UniProt P20813); test: Enzyme inhibition (in vitro); assay type: in vitro ADME
T1 sequence (P20813 1-491): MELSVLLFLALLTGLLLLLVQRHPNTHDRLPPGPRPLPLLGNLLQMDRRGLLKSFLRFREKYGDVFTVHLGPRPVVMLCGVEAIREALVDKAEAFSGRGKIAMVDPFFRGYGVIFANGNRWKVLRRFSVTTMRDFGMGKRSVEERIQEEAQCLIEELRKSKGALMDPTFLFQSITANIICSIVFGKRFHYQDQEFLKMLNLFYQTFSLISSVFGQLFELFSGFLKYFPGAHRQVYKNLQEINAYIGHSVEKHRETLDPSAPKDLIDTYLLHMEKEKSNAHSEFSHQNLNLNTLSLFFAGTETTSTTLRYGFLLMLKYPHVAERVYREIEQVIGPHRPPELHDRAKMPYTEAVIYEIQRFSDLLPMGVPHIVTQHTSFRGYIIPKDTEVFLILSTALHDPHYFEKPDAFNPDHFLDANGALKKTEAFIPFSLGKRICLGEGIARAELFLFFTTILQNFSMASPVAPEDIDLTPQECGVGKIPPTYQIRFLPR

normal rats = test: Hemoglobin concentration and red blood cell count after repeated dosing; assay type: in vivo, rat; details: repeated oral administration for 14 days
CYP2C9 = CYP2C9 (Homo sapiens, UniProt P11712); test: Enzyme inhibition (in vitro); assay type: in vitro ADME
[1] = Plasma pharmacokinetics, repeated once-daily administration to healthy adult men; assay type: in vivo, human; details: first day of administration
[2] = system: UGT1A1, UGT1A7, UGT1A8 and UGT1A9; test: UGT isoforms generating the O-glucuronide (in vitro); assay type: in vitro ADME, human
[3] = Phase I drug-drug interaction study with sevelamer carbonate; assay type: in vivo, human; details: for clearance: read-out: Clearance (ClB) (converted); for Vd: read-out: Volume of distribution (Vc); for Tmax: median (minimum, maximum)
Protocol: A phase I, open-label, fixed-sequence study was conducted in healthy adult subjects to assess the effect of sevelamer carbonate as phosphate binders on the pharmacokinetics of a single dose of vadadustat.
Pharmacokinetics. A predose PK blood sample was collected on Day 1. After each dose of vadadustat administered (Days 1, 3, 5, and 7), blood samples for PK analysis were collected at the following time points: predose and 0.5, 1, 1.5, 2, 3, 4, 6, 9, 12, 16, 24, and 48 hours after each dose of vadadustat. The 48-hour postdose sample was collected before vadadustat administration on Days 3, 5, and 7. The following parameters were calculated and analyzed: AUC0-∞, AUC0-last, Cmax, Tmax, Kel, CIB, Vc/F, and t1/2.
Subjects were dosed approximately at the same designated time on each dosing day, where applicable. Study drugs were administered with approximately 8 ounces (240 mL) of water at room temperature in a seated position. Subjects were instructed to drink the full 8 ounces of water, and not to chew or break the tablets/gelcaps.
A single oral dose of vadadustat 300 mg (2×150 mg tablets) was administered on Days 1, 3, 5, and 7. Phosphate binder that is sevelamer carbonate (1600 mg, 2×800 mg tablets) was administered on Days 3, 5, and 7.
The 9-day treatment period was conducted as follows: • Day 1: vadadustat administered immediately after consuming breakfast. • Day 2: wash-out (no investigational product administration). • Day 3: vadadustat administered concomitantly with the requisite phosphate binder immediately after consuming breakfast. • Day 4: wash-out (no investigational product administration). • Day 5: vadadustat administered in fasted condition and the phosphate binder administered 1 hour later (breakfast must be served within 2 minutes after phosphate binder administration and consumed immediately after it is served). • Day 6: wash-out (no investigational product administration). • Day 7: phosphate binder administered immediately after consuming breakfast; vadadustat administered 2 hours after the phosphate binder was administered. • Day 8: wash-out (no investigational product administration). • Day 9: subjects discharged from the Clinical Research Unit (CRU) after the 48-hour postdose PK blood sample has been collected.

[4] = concomitant administration of phosphate binder vs vadadustat alone, ANOVA
[5] = human, plasma, oral, 300 mg, vadadustat 300 mg alone, immediately after breakfast, mean ± SD
[6] = human, plasma, oral, vadadustat 300 mg 2 hours after sevelamer carbonate 1600 mg with breakfast, mean ± SD
[7] = human, plasma, oral, vadadustat 300 mg concomitantly with sevelamer carbonate 1600 mg, immediately after breakfast, mean ± SD
[8] = human, plasma, oral, vadadustat 300 mg fasting, 1 hour prior to sevelamer carbonate 1600 mg, mean ± SD
[9] = vadadustat 300 mg alone, immediately after breakfast, mean ± SD

Chain of CYP2C9 (P11712 whole entry): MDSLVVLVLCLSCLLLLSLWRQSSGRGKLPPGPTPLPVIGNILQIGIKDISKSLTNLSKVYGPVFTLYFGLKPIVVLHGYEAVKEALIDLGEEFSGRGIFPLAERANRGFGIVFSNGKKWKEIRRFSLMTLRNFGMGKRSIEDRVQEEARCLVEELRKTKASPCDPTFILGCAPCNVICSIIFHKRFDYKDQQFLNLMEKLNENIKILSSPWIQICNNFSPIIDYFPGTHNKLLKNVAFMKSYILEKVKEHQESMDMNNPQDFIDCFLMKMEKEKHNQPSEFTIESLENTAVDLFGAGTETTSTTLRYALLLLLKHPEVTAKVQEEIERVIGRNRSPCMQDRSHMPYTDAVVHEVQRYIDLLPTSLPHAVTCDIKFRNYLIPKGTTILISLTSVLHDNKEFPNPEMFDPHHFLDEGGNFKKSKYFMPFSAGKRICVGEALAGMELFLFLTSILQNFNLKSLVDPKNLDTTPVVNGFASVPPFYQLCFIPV

O=C(O)CNC(=O)c1ncc(-c2cccc(Cl)c2)cc1O [Compound 1, {[5-(3-chlorophenyl)-3-hydroxypyridine-2-carbonyl]amino}acetic acid]
inhibitory effect on CYP2B6 (CYP2B6): inhibitory effect
hemoglobin concentration (normal rats): increasing
red blood cell count (normal rats): increasing
inhibitory effect on CYP2C9 (CYP2C9): inhibitory effect
Tmax ([1]; 300 mg once a day): 1.95 h
t1/2 ([1]; 300 mg once a day): 6.14 ± 0.763 h
Tmax ([1]; 600 mg once a day): 1.98 h
UGT isoforms involved in the generation of the O-glucuronide [2]: UGT1A1, UGT1A7, UGT1A8 and UGT1A9
reduction of vadadustat AUC0-last [3, 4]: about 37%
reduction of vadadustat AUC0-∞ [3, 4]: about 37%
reduction of vadadustat Cmax [3, 4]: about 40%
AUC(0-t) [3, 5]: 185 ± 57.3 µg·h/mL
AUC(0-inf) ([3]; human, plasma, oral, 300 mg, vadadustat 300 mg alone, immediately after breakfast, mean ± SD, read-out: AUC0-∞): 190 ± 57.2 µg·h/mL
clearance [3, 5]: 28.8 mL/min
Vd [3, 5]: 11.5 ± 2.84 L
Tmax ([3]; human, plasma, oral, 300 mg, vadadustat 300 mg alone, immediately after breakfast): 3.97 h
AUC(0-inf) ([3]; human, plasma, oral, concurrent vadadustat and sevelamer carbonate, read-out: geometric LS mean AUC0-∞): 114 µg·h/mL
AUC(0-t) [3, 6]: 151 ± 57.5 µg·h/mL
AUC(0-inf) ([3]; human, plasma, oral, vadadustat 300 mg 2 hours after sevelamer carbonate 1600 mg with breakfast, mean ± SD, read-out: AUC0-∞): 154 ± 57.8 µg·h/mL
clearance [3, 6]: 38.3 mL/min
half-life ([3]; human, plasma, oral, vadadustat 300 mg 2 hours after sevelamer carbonate 1600 mg with breakfast, mean ± SD, read-out: Elimination half-life (t1/2) (converted)): 5.1 ± 0.97 h
Vd [3, 6]: 16.4 ± 7.04 L
Tmax ([3]; human, plasma, oral, vadadustat 300 mg 2 hours after sevelamer carbonate 1600 mg with breakfast): 2.99 h
AUC(0-t) [3, 7]: 121 ± 50.4 µg·h/mL
AUC(0-inf) ([3]; human, plasma, oral, vadadustat 300 mg concomitantly with sevelamer carbonate 1600 mg, immediately after breakfast, mean ± SD, read-out: AUC0-∞): 124 ± 51 µg·h/mL
clearance [3, 7]: 48 mL/min
Cmax ([3]; human, plasma, oral, vadadustat 300 mg concomitantly with sevelamer carbonate 1600 mg, immediately after breakfast, mean ± SD, read-out: Cmax): 16600 ± 5750 ng/mL
Vd [3, 7]: 19.4 ± 10.1 L
Tmax ([3]; human, plasma, oral, vadadustat 300 mg concomitantly with sevelamer carbonate 1600 mg, immediately after breakfast): 3.49 h
AUC(0-t) [3, 8]: 152 ± 46.2 µg·h/mL
AUC(0-inf) ([3]; human, plasma, oral, vadadustat 300 mg fasting, 1 hour prior to sevelamer carbonate 1600 mg, mean ± SD, read-out: AUC0-∞): 156 ± 48.5 µg·h/mL
clearance [3, 8]: 35.7 mL/min
Cmax ([3]; human, plasma, oral, vadadustat 300 mg fasting, 1 hour prior to sevelamer carbonate 1600 mg, mean ± SD, read-out: Cmax): 31300 ± 10600 ng/mL
Vd [3, 8]: 13.6 ± 5.04 L
Tmax ([3]; human, plasma, oral, vadadustat 300 mg fasting, 1 hour prior to sevelamer carbonate 1600 mg): 1.49 h
Cmax [3, 9]: 26700 ± 6610 ng/mL
Elimination half-life (t1/2) [3, 9]: 4.81 ± 1.15 h
Elimination half-life (t1/2) ([3]; vadadustat 300 mg concomitantly with sevelamer carbonate 1600 mg, immediately after breakfast, mean ± SD): 4.70 ± 0.90 h
changes in vadadustat exposure ([3]; vadadustat administered 1 hour prior to sevelamer carbonate): within the prespecified no-effect boundaries of 80% to 125%
changes in vadadustat exposure ([3]; vadadustat administered 2 hours after sevelamer carbonate): within the prespecified no-effect boundaries of 80% to 125%
